Measured values reported in publication PMC8003975 (Cancers, 2021).

Tests used:
[1] = Toxicity study, 5 days, body weight and serum chemistries; assay type: in vivo, C57Bl/6 male mice
Procedure: For toxicity analysis, mice (n = 3) were given 20 mg/ kg of M-I twice a day or 30 mg/kg IP dose of M-I once a day by IP injection for five days. In parallel, there were untreated control (n = 3) and BME treated group (n = 3) for comparison. Behavior and body weight of mice were monitored daily. The body weight in all the mice was stable, with no drastic changes seen in any of the mice tested. We collected blood on day six, and serum chemistries related to liver and kidney function were examined.
For toxicity study, C57Bl/6 male mice were received either 30% BME through drinking water or 20 mg/kg of M-I twice a day or 30 mg/kg of M-I once a day by IP injection for 5 days. There were three mice in each group, including untreated control. Blood was collected on day 6, and serum was prepared. Serum parameters related to hepatotoxicity (total bilirubin, alanine transaminase, aspartate transaminase, and alkaline phosphatase) and nephrotoxicity (urea and creatinine) were performed.

cyclin D1 = test: Western blot of treated HNC cells; assay type: cell-based, human; details: Cal27 and JHU029 cells, 48 hr; 2% BME or 10 µg/mL M-I
Procedure: (§1) Figure 3 Momordicine-I inhibits downstream of c-Met signaling in HNC cells. Representative Western blot image for c-Myc, survivin and cyclin D1 expression in Cal27 and JHU029 cells with treatment of BME or M-I. The same membrane used in panel A was reprobed. Actin was used as internal control. Quantitative representation of Western blot band intensities (right panel). Small bar indicates standard error (*** p < 0.001).
(§2) Bitter melon extract (BME) was prepared from the Chinese variety of young bitter melons (raw and green) as described previously. Briefly, BME was prepared by aqueous extraction from whole fruit without seeds using a household juicer at room temperature with subsequent centrifugation at 15000× g at 4 °C for 30 min. BME was stored at −80 °C for further analysis. Cal27 and JHU029 cells were treated with 2% BME and JHU022 cells were treated with 3% BME as described previously. The momordicine-I (>98% pure) was purchased from Chemfaces (Cat. No.: CFN92076; Hubei, China). The powder was dissolved in DMSO and added to the cells at different concentrations. Based on cytotoxicity data, Cal27 and JHU029 cells were treated with 10 µg/mL and JHU022 cells were treated with 20 µg/mL dose of M-I and incubated for 48 hr for further experiments. All the experiments were done at least in triplicate. […]

c-Myc = test: Western blot of treated HNC cells; assay type: cell-based, human; details: Cal27 and JHU029 cells, 48 hr; 2% BME or 10 µg/mL M-I
Procedure: as §1, §2

total STAT3 = test: Western blot of treated HNC cells; assay type: cell-based, human; details: for total STAT3 level, short term treatment: Cal27 cells, 2% BME or 10 μg/mL M-I
Procedure: (§3) Figure 2 Momordicine-I inhibited c-Met signaling in HNC cells. (A) Cal27, JHU029 […] cells were treated with either 2% BME or 10 µg/mL of M-I and JHU022 cells were treated with either 3% BME or 20 µg/mL dose of M-I. Cell lysates were prepared after 48 hr of treatment and subjected to Western blot analysis using specific antibodies. Representative Western blot images for c-Met expression in Cal27, JHU029 and JHU022 cells are shown. Membrane was reprobed with the antibody for actin as an internal control. (B) Representative Western blot image for phospho-STAT3 (pSTAT3 Tyr-705) and total STAT3 expression in Cal27 and JHU029 cells with BME or M-I treatment. Membrane was reprobed by actin as an internal control. Quantitative representation of Western blot band intensities (right panel). Small bar indicates standard error (* p < 0.05; *** p < 0.001). (C) Cal27 cells were treated with 2% BME or M-I (10 μg/mL) at indicated time points. (D) Cal27 cells were treated with control siRNA or siRNA to c-Met (si-Met) for 48 hr. Cell lysates (from panels c and D) were subjected to analyze by western blot for pSTAT3 or STAT3 using specific antibody. Membranes were reprobed by actin as internal control. Quantitative representation of Western blot band intensities (right panel). Small bar indicates standard error (*** p < 0.001).
(§4) Bitter melon extract (BME) was prepared from the Chinese variety of young bitter melons (raw and green) as described previously. Briefly, BME was prepared by aqueous extraction from whole fruit without seeds using a household juicer at room temperature with subsequent centrifugation at 15000× g at 4 °C for 30 min. BME was stored at −80 °C for further analysis. Cal27 and JHU029 cells were treated with 2% BME and JHU022 cells were treated with 3% BME as described previously. The momordicine-I (>98% pure) was purchased from Chemfaces (Cat. No.: CFN92076; Hubei, China). The powder was dissolved in DMSO and added to the cells at different concentrations. Based on cytotoxicity data, Cal27 and JHU029 cells were treated with 10 µg/mL and JHU022 cells were treated with 20 µg/mL dose of M-I and incubated for 48 hr for further experiments. All the experiments were done at least in triplicate.
(§5) Lysates from control, BME or M-I treated cells and tumors were prepared using 2× SDS sample buffer and subjected to western blot analysis using specific antibodies to c-Met (1: 500, Cell Signaling Technology, CST, Denvers, MA, USA,), phospho- STAT3 (pSTAT3-Tyr-705) (1:1000, CST), total STAT3 (1:1000, CST), c-Myc (1:1000, CST), survivin (1:500, Santa Cruz Biotechnology, SBT, Dallas, TX, USA) and cyclin D1 (1: 500, SBT). HRP conjugated anti-mouse or anti-rabbit secondary antibodies were purchased from Bio-Rad (Hercules, CA, USA). The blot was reprobed with HRP conjugated β-actin antibody (1:5000; SBT) to compare protein load in each lane. Densitometry analysis was done using Image J software (NIH, Bethesda, MD, USA).

phospho-STAT3 (Tyr-705) = test: Western blot of treated HNC cells; assay type: cell-based, human
Procedure: as §3, §4, §5

c-Met = test: Western blot of treated HNC cells; assay type: cell-based, human; details: Cal27, JHU029 and JHU022 cells, 48 hr; 2% or 3% BME, 10 or 20 µg/mL M-I; vs vehicle control
Procedure: as §3, §4, §5

[2] = literature-reported biology of the tentatively identified metabolite; no reference given; cited from earlier work
survivin = test: Western blot of treated HNC cells; assay type: cell-based, human; details: Cal27 and JHU029 cells, 48 hr; 2% BME or 10 µg/mL M-I
Procedure: Bitter melon extract (BME) was prepared from the Chinese variety of young bitter melons (raw and green) as described previously [17]. Briefly, BME was prepared by aqueous extraction from whole fruit without seeds using a household juicer at room temperature with subsequent centrifugation at 15000× g at 4 °C for 30 min. BME was stored at −80 °C for further analysis. Cal27 and JHU029 cells were treated with 2% BME and JHU022 cells were treated with 3% BME as described previously [17, 21]. […] The powder was dissolved in DMSO and added to the cells at different concentrations. Based on cytotoxicity data, Cal27 and JHU029 cells were treated with 10 µg/mL and JHU022 cells were treated with 20 µg/mL dose of M-I and incubated for 48 hr for further experiments. All the experiments were done at least in triplicate.
HRP conjugated anti-mouse or anti-rabbit secondary antibodies were purchased from Bio-Rad (Hercules, CA, USA). The blot was reprobed with HRP conjugated β-actin antibody (1:5000; SBT) to compare protein load in each lane. […]

insulin secretion = details: cited from earlier work
rat cardiac fibroblasts = details: cited from earlier work

Compound: CC(C)=CC(O)CC(C)[C@H]1CC[C@@]2(C)[C@@H]3[C@@H](O)C=C4[C@@H](CC[C@H](O)C4(C)C)[C@]3(C=O)CC[C@]12C (stereo partly drawn) [M-I, (3S, 7S, 8S, 9R, 10R, 13R, 14S, 17R) 3,7-dihydroxy-17-(4-hydroxy-6-methylhept-5-en-2-yl)-4,4,13,14-tetramethyl-2,3,7,8,10,11, 12,15,16,17-decahydro-1H-cyclopenta[a]phenanthrene-9-carbaldehyde]
- body weight ([1]; M-I 20 mg/kg twice a day or 30 mg/kg once a day IP, or 30% BME in drinking water, five days): stable
- serum chemistries (total bilirubin, alanine transaminase, aspartate transaminase, alkaline phosphatase, creatinine, urea, glucose) versus untreated control ([1]; blood on day six, M-I IP for five days or 30% BME in drinking water): comparable
- cyclin D1 expression (cyclin D1): significant inhibition
- c-Myc expression (c-Myc): significant inhibition
- total STAT3 level (total STAT3; Cal27 and JHU029 cells, 48 hr, 10 µg/mL M-I): substantial reduction
- total STAT3 level, short term treatment (total STAT3; 15 min): without affecting
- total STAT3 level, short term treatment (total STAT3; 240 min): inhibited
- phospho-STAT3 (Tyr-705) expression (phospho-STAT3 (Tyr-705); Cal27 and JHU029 cells, 48 hr, 2% BME or 10 µg/mL M-I): significant reduction
- pSTAT3 level, short term treatment (phospho-STAT3 (Tyr-705); Cal27 cells, 15 min, 2% BME or 10 μg/mL M-I): inhibits
- c-Met expression (c-Met): significant reduction
- Reported Biology [2]: • stimulate insulin secretion in vitro • diabetes-associated cardiac fibrosis.
- survivin expression (survivin): significant inhibition
- insulin secretion in vitro (insulin secretion): stimulate insulin secretion
- effect on high-glucose-induced cell proliferation and collagen synthesis (rat cardiac fibroblasts): inhibitory effects
